Assay results taken from patent publication US20100216785A1, “PHARMACEUTICAL COMPOSITIONS” (NEUROSCIENZE PHARMANESS S.C. A.R.L., priority 2009, published 2010).

Biological target: T1, CB1 cannabinoidergic receptors (Mus musculus, UniProt P47746)
T1 construct: the complete brain (excluding the cerebellum) and the spleen were quickly dissected and kept in ice; from tissue; host or cells: mouse brain (excluding the cerebellum) membranes
T1 sequence (P47746 whole entry): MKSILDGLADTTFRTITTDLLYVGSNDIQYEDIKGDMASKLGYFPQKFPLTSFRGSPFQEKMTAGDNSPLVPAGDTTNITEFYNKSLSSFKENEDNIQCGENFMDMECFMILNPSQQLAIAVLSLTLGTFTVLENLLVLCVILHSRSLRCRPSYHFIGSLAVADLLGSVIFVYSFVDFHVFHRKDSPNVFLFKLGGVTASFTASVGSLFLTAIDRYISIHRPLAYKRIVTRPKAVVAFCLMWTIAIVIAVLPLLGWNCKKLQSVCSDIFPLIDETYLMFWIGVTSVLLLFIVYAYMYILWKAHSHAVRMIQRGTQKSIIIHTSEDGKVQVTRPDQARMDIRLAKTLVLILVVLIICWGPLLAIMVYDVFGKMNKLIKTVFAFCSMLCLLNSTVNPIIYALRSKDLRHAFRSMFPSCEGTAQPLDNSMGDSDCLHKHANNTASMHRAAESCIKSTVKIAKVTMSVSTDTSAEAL
Experiment: Radioreceptor binding, displacement of [3H]-CP-55,940, CB1 receptors (mouse brain membranes)
Conditions: not given
Description: (§1) The affinity of the compounds towards the CB1 and CB2 cannabinoidergic receptors was evaluated in vitro by radioreceptor binding studies using the following method.
(§2) The technique of the receptor binding allows to establish if, and with which affinity and specificity, a specific compound binds to a particular receptor. To evaluate the affinity of a specific compound to a particular receptor it is necessary to challenge in a particular tissue preparation wherein those specific receptors are present the compound to be tested with a radioactive labelled compound whose affinity for the same receptors is known. […] The amount of radioactivity present in the receptor-compound complex allows furthermore to stimate with great accuracy the amount of compound bound to the receptor. By said method it is therefore possible to stablish quickly the affinity of a new compound towards a specific receptor and thus to determine its pharmacological activity. […]
(§3) The thus obtained membranes (50-80 μg of proteins) were incubated in the presence of 1 nM of [^3H]-CP55.940 for 1 hour at 30° C. in a final volume of 0.5 ml of TME buffer containing 5 mg/ml of bovine serum albumin (BSA). The non specific binding was measured in the presence of CP55.940 at a 1 μM concentration. […]
(§4) The radioactivity present in the filters was determined by a scintillator spectrophotometer (Tricarb® 2100, Packard, Meridien, USA). […]
With Cc1ccc2c(c1)oc1c(C(N)=O)nn(-c3ccc(Cl)cc3Cl)c12 [1-(2,4-dichlorophenyl)-6-methyl-1H-benzofuro[3,2-c]pyrazole-3-carboxamide] the Ki was > 3 µM.

Tested on: not given
Experiment: not given
Conditions: not given
Cc1ccc2c(c1)oc1c(C(N)=O)nn(-c3ccc(Cl)cc3Cl)c12 [1-(2,4-dichlorophenyl)-6-methyl-1H-benzofuro[3,2-c]pyrazole-3-carboxamide] showed a melting point of 185 to 186 °C.
Molecule Cc1ccc2c(c1)oc1c(C(=O)NN3CCCC3)nn(-c3ccc(Cl)cc3Cl)c12 [Example 3.21, N-pirrolidinyl-1-(2,4-dichlorophenyl)-6-methyl-1H-benzofuro[3,2-c]pyrazole-3-carboxamide] has a melting point of 90 to 92 °C.
For Cc1ccc2c(c1)oc1c(C(=O)NN3CCOCC3)nn(-c3ccc(Cl)cc3Cl)c12 [Example 3.22, N-morpholin-4yl-1-(2,4-dichlorophenyl)-6-methyl-1H-benzofuro[3,2-c]pyrazole-3-carboxamide], the melting point was 178 to 180 °C.
In the case of Cc1ccc2c(c1)oc1c(C(=O)NC3CCCCC3)nn(-c3ccc(Cl)cc3Cl)c12 [Example 3.23, N-cyclohexyl-1-(2,4-dichlorophenyl)-6-methyl-1H-benzofuro[3,2-c]pyrazole-3-carboxamide], the melting point is reported as 140 to 142 °C.
Cc1ccc2c(c1)oc1c(C(=O)N[C@H]3C[C@@H](C)CC[C@@H]3C(C)C)nn(-c3ccc(Cl)cc3Cl)c12 [Example 3.24, N-2-isopropyl-5-methyl-cyclohexyl-1-(2,4-dichlorophenyl)-6-methyl-1H-benzofuro[3,2-c]pyrazole-3-carboxamide] gave a melting point of 70 to 72 °C.
With Cc1ccc2c(c1)oc1c(C(=O)N[C@@H]3C[C@H]4C[C@@H]([C@@H]3C)C4(C)C)nn(-c3ccc(Cl)cc3Cl)c12 [Example 3.25, N-2,6,6-trimethyl-bicyclo[3.1.1]hept-3yl-1-(2,4-dichlorophenyl)-6-methyl-1H-benzofuro[3,2-c]pyrazole-3-carboxamide] the melting point was 85 to 87 °C.
Cc1ccc2c(c1)oc1c(C(=O)NC3C4(C)CCC(C4)C3(C)C)nn(-c3ccc(Cl)cc3Cl)c12 (stereo not drawn) [Example 3.26, N-1,3,3-trimethyl-bicyclo[2.2.1]hept-2yl-1-(2,4-dichlorophenyl)-6-methyl-1H-benzofuro[3,2-c]pyrazole-3-carboxamide] showed a melting point of 84 to 86 °C.
In the case of Cc1ccc2c(c1)oc1c(C(=O)NC3CC4CCC3(C)C4(C)C)nn(-c3ccc(Cl)cc3Cl)c12 (stereo not drawn) [Example 3.27, N-1,7,7-trimethyl-bicyclo[2.2.1]hept-2yl-1-(2,4-dichlorophenyl)-6-methyl-1H-benzofuro[3,2-c]pyrazole-3-carboxamide], the melting point is reported as 78 to 80 °C.
Cc1ccc2c(c1)oc1c(C(=O)NC34CC5CC(CC(C5)C3)C4)nn(-c3ccc(Cl)cc3Cl)c12 [Example 3.28, N-adamantan-1yl-1-(2,4-dichlorophenyl)-6-methyl-1H-benzofuro[3,2-c]pyrazole-3-carboxamide] gave a melting point of 210 to 212 °C.
Molecule Cc1ccc2c(c1)oc1c(C(=O)NC3C4CC5CC(C4)CC3C5)nn(-c3ccc(Cl)cc3Cl)c12 (stereo not drawn) [Example 3.29, N-adamantan-2yl-1-(2,4-dichlorophenyl)-6-methyl-1H-benzofuro[3,2-c]pyrazole-3-carboxamide] has a melting point of 209 to 211 °C.

Biological target: T2, CB2 cannabinoidergic receptors (Mus musculus, UniProt P47936)
T2 construct: the complete brain (excluding the cerebellum) and the spleen were quickly dissected and kept in ice; from tissue; host or cells: mouse spleen membranes
T2 sequence (P47936 whole entry): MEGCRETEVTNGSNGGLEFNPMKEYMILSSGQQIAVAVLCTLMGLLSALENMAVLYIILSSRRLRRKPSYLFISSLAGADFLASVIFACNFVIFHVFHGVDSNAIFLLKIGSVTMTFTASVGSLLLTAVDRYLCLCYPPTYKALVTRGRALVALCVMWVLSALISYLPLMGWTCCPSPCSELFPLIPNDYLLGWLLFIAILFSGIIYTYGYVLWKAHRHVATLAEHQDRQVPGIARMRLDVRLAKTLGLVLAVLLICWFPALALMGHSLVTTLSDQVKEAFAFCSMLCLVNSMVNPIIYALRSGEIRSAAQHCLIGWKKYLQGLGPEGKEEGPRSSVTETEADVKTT
Experiment: Radioreceptor binding, displacement of [3H]-CP-55,940, CB2 receptors (mouse spleen membranes)
Conditions: 1 nM [3H]-CP55,940, 1 hour at 30° C.
Description: as §1, §2, §3, §4
In the case of Cc1ccc2c(c1)oc1c(C(N)=O)nn(-c3ccc(Cl)cc3Cl)c12 [1-(2,4-dichlorophenyl)-6-methyl-1H-benzofuro[3,2-c]pyrazole-3-carboxamide], the Ki is reported as > 3 µM.
